PMC6383948, “Evaluation of a class of isatinoids identified from a high-throughput screen of human kinase inhibitors as anti-Sleeping Sickness agents” (PLoS Neglected Tropical Diseases, 2019)
Like-named read-outs stand apart in the source and are kept apart here.

Assays:
[1] = tested on: MRC5-SV2 cell line; conditions: printed in Fig 4; ref [16]; cited from earlier work
[2] = tested on: T. b. brucei; conditions: cited from earlier work; for T.b.b. pEC50: data from original HTS, ref [13]
[3] = tested on: L. donovani; assay: EC50 in L. donovani (infected THP-1 macrophages, luciferase); type: cell-based, Leishmania donovani MHOM/ET/67/HU3; conditions: 72 h; for EC50: Leishmania donovani, read-out: L. donovani pEC50 (converted)
Experimental: Leishmania donovani MHOM/ET/67/HU3 cells with the luciferase gene integrated into the parasite genome[1] were grown at 28 °C in RPMI 1640-modified medium (Invitrogen) supplemented with 20% FBS with […] of hygromycin B.
The Human myelomonocytic cell line THP-1 was grown at 37 °C and 5% CO2 in RPMI-1640 supplemented with 10% iFBS, 2 mM […], 100 U/mL penicillin and […] streptomycin. 3 x 10^4 THP-1 cells per well in 96-well plates were differentiated to macrophages with 20 ng/mL of PMA treatment for 48 h followed by 24 h of culture in fresh medium.
Macrophage-differentiated THP-1 cells were infected at a macrophage/parasite ratio of 1/10 with stationary L. donovani promastigotes for 24 h at 35 °C and 5% CO2, and extracellular parasites were removed by washing with PBS. Infected cell cultures were then incubated with different compounds concentrations at 37 °C for 72 h. Luminescence was measured using the Promega kit luciferase assay system (Promega, Madison, WI). Assays were performed in duplicate at least twice, to achieve a minimal n=3 per dose response.

[4] = parameters: method as in PMID 25340575; conditions: data from original HTS; ref [13]; cited from earlier work
[5] = tested on: T. cruzi; assay: β-D-Galactosidase transgenic T. cruzi assay (amastigote-infected L6 cells); type: cell-based, T. cruzi Tulahuen C4 strain; conditions: 96 h; for EC50: Trypanosoma cruzi, read-out: T. cruzi pEC50 (converted)
Experimental: The T. cruzi Tulahuen C4 strain, expressing the β-galactosidase gene (LacZ) and L6 rat skeletal muscle cells, used as host cells, were cultured in RPMI-1640 supplemented with 10% iFBS, 2 mM L-glutamine, 100 U/mL penicillin, and 100 μg/mL streptomycin at 37 °C and 5% CO2.
A Thermo Scientific Multidrop Combi dispenser (MTX Lab Systems, Vienna, VA) was used to dispense 90 μL of T. cruzi amastigote–infected L6 cell culture (4×10^3 infected L6 cells per well) into 96-well Corning assay plates (Corning Inc., Corning, NY) already containing 10 μL of the compounds to be screened and controls. The plates were incubated at 37 °C for 96 h. Then, 30 μL of 100 μM CPRG and 0.1% NP40 diluted in PBS were added to each well, and the plates were incubated for 4 h at 37 °C in the dark. Absorbance at 585 nm was measured in a Vmax kinetic microplate reader ([…]). Compound activities were normalized using the in-plate negative (benznidazole at 10 μg/mL) and positive (0.2% DMSO) growth controls.

[6] = tested on: S. mansoni adults and somules; assay: S. mansoni phenotypic assay, adults and somules (severity score); type: cell-based, Schistosoma mansoni (NMRI isolate); conditions: for Adult severity score (10 μM): adults; for Adult severity score (10 μM) / Somule severity score (10 μM): score 0-4; for Somule severity score (10 μM): somules
Experimental: Maintenance of the Schistosoma mansoni life cycle, preparation of somules (post-infective larvae) and adult worms (≥42-days-old), and co-incubation of these stages with test compounds were as described. An NMRI isolate of S. mansoni was used for all whole-organism screens.
Somules (40 units/well/96w round-bottomed plate) or adults (five paris/well/24w plate) were cultured in the presence of compounds at 10 µM and phenotypic changes observed as a function of time using an Zeiss Axiovert A1 inverted microscope (Table S4). A constrained nomenclature was used to describe the effects of compounds on parasites (changes in shape, motility and density). To generate a partially quantitative output for comparing drug effects, each descriptor was awarded a score of 1 and these were summed to a maximum score of 4 [7-10]: evidence of degeneracy or death was awarded the maximum score of 4. For adults specifically, damage to the tegument (outer surface) was also awarded a score of 4 based on the indication that damage to the patrasite’s surface is lethal in vivo [11]. Assays were performed twice and representative data are shown.

[7] = Human plasma protein binding (equilibrium dialysis); type: in vitro ADME; conditions: for fraction unbound at 10 µM: pH 7.4, read-out: PPB (converted)
Experimental: PPB is determined using equilibrium dialysis (RED device) to separate free from bound compound. The amount of compound in plasma (10 µM initial concentration) and in dialysis buffer (pH 7.4 phosphate buffer) is measured by LC-MS/MS after equilibration at 37 °C in a dialysis chamber. The fraction unbound (fu) is reported.

[8] = Aqueous pH 7.4 solubility; type: physicochemical; conditions: aqueous buffer, thermodynamic from solid; pH 7.4 phosphate buffer, 25 °C, 20-24 h; read-out: Aq. Solubility
Experimental: Compounds are dried down from 10 mM DMSO solutions using centrifugal evaporation technique. Phosphate buffer (0.1 M pH 7.4) added and StirStix inserted in the glass vials, shaking is then performed at a constant temperature of 25 °C for 20-24 h. This step is followed by double centrifugation with a tip wash in between, to ensure that no residues of the dried compound are interfering. The solutions are diluted before analysis and quantification using LC/MS/MS is performed.

[9] = tested on: MRC5-SV2 cell line; assay: Cytotoxicity assay in MRC5 (resazurin, 48 h); type: cell-based, human; conditions: MRC5 toxicity
Experimental: For dose-response experiments, compound plates were prepared for each analogue by serial 3-fold dilutions in 100% DMSO. Five concentration points (mammalian cytotoxicity) or ten concentration points (parasite growth inhibition), were made in 96-well transparent Nunclon plates. Pentamidine is routinely included in compound plates as internal quality control, and plates are stored sealed at -20 °C for no more than four weeks. Intermediate plates were made as described, adding 95 μL of DMEM complete media to 5 μL of compound per well setting a 5% DMSO amount. Log-phase MRC5 cells were removed from a T-75 TC flask using TrypLE® Express (Thermo®) and dispersed by gentle pipetting. Cell density was adjusted to working concentration in prewarmed DMEM medium: 25,000 cells in 90 μL of culture were plated in 96-well transparent Nunclon plates and let to settle for 24 h at 37 °C and 5% CO2. After settling incubation, 10 μL of fresh made intermediate plate were added per well: final maximal concentration for compounds was 50 μM in 0.5% DMSO per well. […] Fluorescence was read in an Infinite F200 plate reader (Tecan®) at 550 nm (excitation filter) and 590 nm (emission filter). A 4-parameter equation was used to fit the dose-response curves and determination of EC50 by SigmaPlot ® 13.0 software. Assays were performed in duplicate at least twice for positive compounds, to achieve a minimal n=3 per dose response.

[10] = Human liver microsomal CLint; type: in vitro ADME; conditions: for microsomal CLint: read-out: HLM Clint
Experimental: In vitro intrinsic clearance determined from human liver microsomes using a standard approach. Following incubation and preparation, the samples are analyzed using LC/MS/MS.

[11] = Shake-flask octanol-water Log D7.4; type: physicochemical; conditions: pH 7.4, octanol-water shake-flask
Experimental: Shake-flask octanol-water distribution coefficient at pH 7.4 (Log D7.4). The aqueous solution used is 10 mM sodium phosphate pH 7.4 buffer. The method has been validated for Log D7.4 ranging from -2 to 5.0.

[12] = tested on: T. b. brucei; assay: T. b. brucei growth inhibition EC50 assay (resazurin, 72 h); type: cell-based, Trypanosoma brucei brucei Lister 427; conditions: for EC50: Trypanosoma brucei, read-out: T.b.b. pEC50 (converted)
Experimental: Mid-log phase growth T. b. brucei was diluted to a working cell density of 2,750 cells/mL and 90 μL/well dispensed into 96-well flat-bottom transparent assay plates (Nunc). Ten μL/well from intermediate plates were added. The final top concentration of compounds was 40 μM in 0.4% DMSO per well.
Assay plates were incubated for 72 h at 37°C and 5% CO2. Four hours prior to the end of the incubation, 20 μL of a 440 μM resazurin solution in prewarmed HMI-9 was added to each well and incubated for another 4 h. Fluorescence was then measured in an Infinite F200 plate reader (Tecan) at 550 nm (excitation filter) and 590 nm (emission filter). A 4-parameter equation was employed to fit the dose-response curves and determine of EC50 using the SigmaPlot 13.0 software. Assays were performed in duplicate at least twice, to achieve a minimal n = 3 per dose response.
Bloodstream Trypanosoma brucei brucei Lister 427 was cultured in Hirumi’s modified Iscove’s medium (HMI-9), supplemented with 10% heat-inactivated FBS, at 37 °C and 5% CO2 in T-25 vented flask (Corning®).
For dose-response experiments, compound plates were prepared for each analogue by serial 3-fold dilutions in 100% DMSO. Five concentration points (mammalian cytotoxicity) or ten concentration points (parasite growth inhibition), were made in 96-well transparent Nunclon plates. Pentamidine is routinely included in compound plates as internal quality control, and plates are stored sealed at -20 °C for no more than four weeks.

[13] = Rat hepatocyte CLint; type: in vitro ADME; conditions: rat hepatocytes
Experimental: In vitro intrinsic clearance determined from rat hepatocytes using a standard approach. Following incubation and preparation, the samples are analyzed using LC/MS/MS.

[14] = 72 h, resazurin, error within ±0.20 (Table 2) or ±0.08 (Table 3) log units

CCS(=O)(=O)Nc1ccc2c(c1)/C(=C(/Nc1ccc(CN3CCCCC3)cc1)c1ccccc1)C(=O)N2 [Hesperadin, reference compound]
MRC5 pTC50 [1]: 6.69
T.b.brucei pEC50 ([2]; printed in Fig 4, ref [16]): 7.22

CC(C)=Cc1cccc2c1C(=NNc1ccc(S(N)(=O)=O)cc1)C(=O)N2 [NEU-1183]
EC50 [3]: > 5.01 µM
Kinetic aq. solubility [4]: <5 µM
EC50 [5]: 0.724 µM
activity against S. mansoni adults and/or somules ([6]; 10 μM): moderate and variable activity
Adult severity score (10 μM) ([6]; 3h): 2
Adult severity score (10 μM) ([6]; 6h): 2
Adult severity score (10 μM) ([6]; 24h): 2
Adult severity score (10 μM) ([6]; 48h): 2
Somule severity score (10 μM) ([6]; 24h): 1
Somule severity score (10 μM) ([6]; 48h): 4
T.b.b. pEC50 [2]: 7.6

NS(=O)(=O)c1ccc(N/N=C2\C(=O)Nc3ccc4ncccc4c32)cc1 [NEU-1184]
Kinetic aq. solubility [4]: 7.7 µM
T.b.b. pEC50 [2]: 7.1

NS(=O)(=O)c1ccc(N/N=C2\C(=O)Nc3ccc(-c4cnco4)cc32)cc1 [NEU-1185]
Kinetic aq. solubility [4]: 18 µM
T.b.b. pEC50 [2]: 6.4

NS(=O)(=O)c1ccc(N/N=C2\C(=O)Nc3ccccc32)cc1 [NEU-2115, (Z)-4-(2-(2-Oxoindolin-3-ylidene)hydrazinyl)benzenesulfonamide]
EC50 [3]: > 10 µM
fraction unbound at 10 µM [7]: 0.04
solubility [8]: < 8 µM
MRC5 pTC50 [9]: <4.3
EC50 [5]: > 10 µM
microsomal CLint ([10]; human, liver microsomes): 20.4 µL/min/mg
logD [11]: 2.3
EC50 [12, 14]: 1.26 µM

O=C1Nc2ccccc2C1=NNc1ccccc1 [NEU-2116, (Z)-3-(2-Phenylhydrazono)indolin-2-one]
EC50 [3]: > 10 µM
fraction unbound at 10 µM [7]: < 0.02
solubility [8]: < 2 µM
MRC5 pTC50 [9]: <4.3
EC50 [5]: > 10 µM
Adult severity score (10 μM) ([6]; 3h): 0
Adult severity score (10 μM) ([6]; 6h): 0
Adult severity score (10 μM) ([6]; 24h): 0
Adult severity score (10 μM) ([6]; 48h): 1
Somule severity score (10 μM) ([6]; 24h): 0
Somule severity score (10 μM) ([6]; 48h): 0
microsomal CLint ([10]; human liver microsomes): 184 µL/min/mg
logD [11]: > 3.8
EC50 ([12]; 72 h): 12.6 µM

(Z)-3-(2-(4-((Piperidin-1-ylmethyl)sulfonyl)phenyl)hydrazineylidene)indolin-2-one [NEU-4893]
L. donovani pEC50 [3]: <5.30
PPB ([7]; 10 µM): 90%
MRC5 pTC50 [9]: <4.3
Rat Hepatocyte Clint [13]: 148 µL/min/10^6 cells
T. cruzi pEC50 [5]: <4.70
HLM Clint ([10]; human liver microsomes): <3 µL/min/mg
LogD (7.4) [11]: 2.2
activity against T. brucei [12]: inactive
T.b.b. pEC50 [12, 14]: 5.0
